Measured values taken from patent US20230348456A1, “QUINAZOLINONES, PHARMACEUTICAL COMPOSITIONS CONTAINING THE SAME, AND METHODS OF USING THE SAME” (Repare Therapeutics Inc., priority 2022, published 2023).

The molecules below were run against recombinant human Myt1 (Homo sapiens (Human), UniProt Q99640) (assay: Myt1 enzymatic assay (ADP-Glo kinase assay)). Details: recombinant human Myt1 18 nM, ATP 10 μM.
Format: biochemical
Procedure: Detection of Myt1 kinase activity utilized a recombinant human Myt1 kinase assay measuring the hydrolysis of ATP using a commercially available ADP-Glo Assay (ADP-Glo™ Kinase Assay from Promega, 10 000 assays, #V9102). Briefly, 5 μL recombinant human Myt1 (full length PKMYT1 recombinant human protein expressed in insect cells from Thermo Fisher #A33387; ˜80% purity) was prepared in reaction buffer (70 mM HEPES, 3 mM MgCl2, 3 mM MnCl2, 50 μg/ml PEG 20000, 3 μM Na-orthovanadate, 1.2 mM DTT) and added to 384 well white polystyrene, flat bottom well, non-treated, microplate (Corning #3572). After this, 5 μL of compounds (diluted in reaction buffer to 0.5% DMSO) was added to the microplate and the plate was spun briefly and incubated at 22° C. for 15 minutes. Ultra-Pure Adenosine Triphosphate (ATP) solution (ADP-Glo kit from Promega) was diluted in reaction buffer and 5 μL was added to the microplate, spun down briefly and incubated for 60 minutes at 30° C. The final Myt1 enzyme concentration was 18 nM and the final ATP concentration was 10 μM. After the 60-minute incubation, 15 μL of ADP-Glo reagent was added and the plate was spun briefly and sealed and incubated in the dark for 40 minutes at 22° C. Following this, 30 μL of kinase detection reagent was added per well and the plate was spun briefly, sealed and incubated for 45-60 minutes at 22° C. in the dark. Luminescence was read using the Envision (250 ms integration). The IC50 and the % max inhibition were calculated for each inhibitor compound tested.

Sequence of recombinant human Myt1 (Q99640 whole entry): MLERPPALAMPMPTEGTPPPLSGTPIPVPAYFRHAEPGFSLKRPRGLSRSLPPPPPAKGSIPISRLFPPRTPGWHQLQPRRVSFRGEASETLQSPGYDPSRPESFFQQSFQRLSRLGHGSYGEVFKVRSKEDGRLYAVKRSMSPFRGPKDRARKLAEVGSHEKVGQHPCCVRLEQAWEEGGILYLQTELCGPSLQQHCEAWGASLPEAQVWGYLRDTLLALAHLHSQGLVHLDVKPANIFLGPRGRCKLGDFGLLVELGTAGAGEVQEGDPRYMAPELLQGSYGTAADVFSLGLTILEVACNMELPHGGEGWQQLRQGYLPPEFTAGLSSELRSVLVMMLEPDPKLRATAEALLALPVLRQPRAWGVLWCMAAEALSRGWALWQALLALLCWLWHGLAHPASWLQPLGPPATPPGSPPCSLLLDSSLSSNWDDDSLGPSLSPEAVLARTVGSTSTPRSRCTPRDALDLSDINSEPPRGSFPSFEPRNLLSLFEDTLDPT

Going from Nc1c(-c2cccc3[nH]ncc23)cc(-c2cccc(OCCN3CCOCC3)c2)c2nc(-c3ccncc3)[nH]c(=O)c12 [Compound 52] to Nc1c(-c2cccc3[nH]ncc23)cc(-c2nccs2)c2nc(-c3cccc(CN4CCOCC4)c3)[nH]c(=O)c12 [Compound 40], the IC50 rises from 5 nM to 18 nM (3.6-fold). The first is the more potent here.

Going from Nc1c(-c2cccc3[nH]ncc23)cc(-c2ncc(C(F)(F)F)s2)c2nc[nH]c(=O)c12 [Compound 115] to Nc1c(-c2cccc3[nH]ncc23)cc(-c2nccs2)c2nc[nH]c(=O)c12 [Compound 28], the IC50 falls from 109 nM to 4 nM (27-fold).

CN1CCC(n2cc(-c3cc(-c4cccc5[nH]ncc45)c(N)c4c(=O)[nH]c(-c5ccncc5)nc34)cn2)CC1 [Compound 60] and Nc1c(-c2cccc3[nH]ncc23)cc(-c2cnn(C3CC3)c2)c2nc(-c3ccncc3)[nH]c(=O)c12 [Compound 72] are the same in IC50: 3 nM for the first, 3 nM for the second.

Compared with Nc1c(-c2cccc3[nH]ncc23)cc(-c2cnn(C3COC3)c2)c2nc(-c3cccnc3)[nH]c(=O)c12 [Compound 100], Nc1c(-c2cccc3[nH]ncc23)cc(-c2cnn(C3COC3)c2)c2nc(-c3ccncc3)[nH]c(=O)c12 [Compound 58] is 5-fold lower in IC50: 5 nM for the first, 1 nM for the second.

Compared with Cc1ccc(O)c(C)c1-c1cc(-c2nccs2)c2c(c1N)C(=O)NC2 [Compound 139], Cc1ccc(O)cc1-c1cc(-c2ncc(Cl)s2)c2c(c1N)C(=O)NC2 [Compound 156] is 82-fold higher in IC50: 7 nM for the first, 576 nM for the second.

Going from Nc1c(-c2cccc3[nH]ncc23)cc(-n2cccn2)c2nc(-c3cccnc3)[nH]c(=O)c12 [Compound 79] to Nc1c(-c2cccc3[nH]ncc23)cc(-n2cc(F)cn2)c2nc(-c3cccnc3)[nH]c(=O)c12 [Compound 75], the IC50 rises from 3 nM to 6 nM (2-fold).

Going from Nc1c(-c2cccc3[nH]ncc23)cc(-c2ccc(F)s2)c2nc[nH]c(=O)c12 [Compound 117] to Nc1c(-c2cccc3[nH]ncc23)cc(-c2ccc(F)cc2)c2nc[nH]c(=O)c12 [Compound 48, 5-amino-8-(4-fluorophenyl)-6-(1H-indazol-4-yl) quinazolin-4(3H)-one], the IC50 rises from 15 nM to 30 nM (2-fold). The first is the more potent here.

Going from Nc1c(-c2cccc3[nH]ncc23)cc(-c2nccs2)c2nc(C3CC3)[nH]c(=O)c12 [Compound 8] to COCc1nc2c(-c3nccs3)cc(-c3cccc4[nH]ncc34)c(N)c2c(=O)[nH]1 [Compound 43], the IC50 falls from 131 nM to 20 nM (6.5-fold).

Compared with Cc1ccc(O)cc1-c1cc(Br)c2nc[nH]c(=O)c2c1N [Compound 138], Cc1ccc(O)cc1-c1cc(-c2nccs2)c2cc[nH]c(=O)c2c1N [Compound 164, 8-amino-7-(5-hydroxy-2-methyl-phenyl)-5-thiazol-2-yl-2H-isoquinolin-1-one] is 3.4-fold lower in IC50: 41 nM for the first, 12 nM for the second. The second is the more potent here.

Nc1c(-c2cccc3[nH]ncc23)cc(-c2nccs2)c2nc(-c3cccc(N4CCOCC4)c3)[nH]c(=O)c12 [Compound 18] and Nc1c(-c2cccc3[nH]ncc23)cc(-c2nccs2)c2nc(-c3ccnc(N4CCOCC4)c3)[nH]c(=O)c12 [Compound 15, 5-amino-6-(1H-indazol-4-yl)-2-(2-morpholinopyridin-4-yl)-8-(thiazol-2-yl)quinazolin-4(3H)-one] are within 1.5-fold of each other in IC50: 9 nM for the first, 10 nM for the second.

Compared with Nc1c(-c2cccc3[nH]ncc23)cc(Br)c2nc(-c3ccc(N4CCNCC4)nc3)[nH]c(=O)c12 [Compound 10], Nc1c(-c2cccc3[nH]ncc23)cc(Br)c2nc(-c3ccc(N4CCC(O)CC4)nc3)[nH]c(=O)c12 [Compound 45] is 6-fold higher in IC50: 3 nM for the first, 18 nM for the second. The first is the more potent here.

Nc1c(-c2cccc3[nH]ncc23)cc(-c2cnccn2)c2nc[nH]c(=O)c12 [Compound 130] and Nc1c(-c2cccc3[nH]ncc23)cc(-c2ccccn2)c2nc[nH]c(=O)c12 [Compound 82] are within 1.5-fold of each other in IC50: 45 nM for the first, 35 nM for the second.

Compared with Nc1c(-c2cccc3[nH]ncc23)cc(Br)c2nc(-c3ccc(N4CCN(C5CC5)CC4)nc3)[nH]c(=O)c12 [Compound 26], CN1CCN(c2ccc(-c3nc4c(Br)cc(-c5cccc6[nH]ncc56)c(N)c4c(=O)[nH]3)cn2)CC1 [Compound 24] is 2-fold higher in IC50: 5 nM for the first, 10 nM for the second. The first is the more potent here.

Going from Nc1c(-c2cccc3[nH]ncc23)cc(C2CC2)c2nc(-c3cccnc3)[nH]c(=O)c12 [Compound 92] to Nc1c(-c2cccc3[nH]ncc23)cc(-c2nccs2)c2nc(-c3cccnc3)[nH]c(=O)c12 [Compound 111], the IC50 falls from 7 nM to 4 nM (1.8-fold).

First: Cc1ccc2[nH]ncc2c1-c1cc(-c2cccc(OCCN3CCCC3)n2)c2nc[nH]c(=O)c2c1N [Compound 89]
Second: Cc1ccc2[nH]ncc2c1-c1cc(-c2cccc(OCCN3CCOCC3)n2)c2nc[nH]c(=O)c2c1N [Compound 88]
The IC50 of the first is 2.6-fold higher: 13 nM for the first, 5 nM for the second. The second is the more potent here.

Going from CC1(O)CCN(c2ccc(-c3nc4c(Br)cc(-c5cccc6[nH]ncc56)c(N)c4c(=O)[nH]3)cn2)CC1 [Compound 47] to Nc1c(-c2cccc3[nH]ncc23)cc(Br)c2nc(-c3ccc(N4CCN(C5CC5)C(=O)C4)nc3)[nH]c(=O)c12 [Compound 11], the IC50 falls from 11 nM to 5 nM (2.2-fold).

Compared with Nc1c(-c2cccc3[nH]ncc23)cc(Br)c2nc(-c3ccc(NC4COC4)nc3)[nH]c(=O)c12 [Compound 35], Nc1c(-c2cccc3[nH]ncc23)cc(Br)c2nc(-c3ccc(NC4CCOC4)nc3)[nH]c(=O)c12 (stereo not drawn) [Compound 19] is 9.7-fold lower in IC50: 29 nM for the first, 3 nM for the second. The second is the more potent here.

Compared with Cc1ccc(O)c(C)c1-c1cc(-c2ccn(C3CC3)n2)c2nc(-c3ccncc3)[nH]c(=O)c2c1N [Compound 135], Cc1ccc(O)c(C)c1-c1cc(-c2cnn(C3CC3)c2)c2nc(-c3ccncc3)[nH]c(=O)c2c1N (atropisomer, axis not shown) [Compound 27] is 1.5-fold lower in IC50: 3 nM for the first, 2 nM for the second. The second is the more potent here.

Compared with Nc1c(-c2cccc3[nH]ncc23)ccc2nc[nH]c(=O)c12 [Compound 109], Nc1c(-c2cccc3[nH]ncc23)cc(-c2nc(Cl)cs2)c2nc[nH]c(=O)c12 [Compound 116] is 9.4-fold lower in IC50: 122 nM for the first, 13 nM for the second.

Compared with CNC(=O)c1csc(-c2cc(-c3cc(O)ccc3C)c(N)c3c2CNC3=O)n1 [Compound 159], CNC(=O)c1cnc(-c2cc(-c3cc(O)ccc3C)c(N)c3c2CNC3=O)s1 [Compound 150] is 2.2-fold higher in IC50: 75 nM for the first, 163 nM for the second.

Going from Cc1ccc(O)cc1-c1cc(-c2nc(NC(=O)C3CCOCC3)cs2)c2c(c1N)C(=O)NC2 [Compound 144] to Cc1ccc(O)cc1-c1cc(-c2nc(C(=O)N3CCOCC3)cs2)c2c(c1N)C(=O)NC2 [Compound 157], the IC50 falls from 930 nM to 244 nM (3.8-fold). The second is the more potent here.

Compared with Nc1c(-c2cccc3[nH]ncc23)cc(-c2ncccn2)c2nc[nH]c(=O)c12 [Compound 122], Nc1c(-c2cccc3[nH]ncc23)cc(-c2cc(F)cc(F)c2)c2nc[nH]c(=O)c12 [Compound 124] is 2.6-fold lower in IC50: 170 nM for the first, 66 nM for the second. The second is the more potent here.

First: N#Cc1cccc(-c2nc3c(-c4nccs4)cc(-c4cccc5[nH]ncc45)c(N)c3c(=O)[nH]2)c1 [Compound 21]
Second: N#Cc1ccc(-c2nc3c(-c4nccs4)cc(-c4cccc5[nH]ncc45)c(N)c3c(=O)[nH]2)cc1 [Compound 5]
The IC50 of the first is 15-fold lower: 6 nM for the first, 89 nM for the second.

Going from Nc1ccc(-c2nc3c(-c4nccs4)cc(-c4cccc5[nH]ncc45)c(N)c3c(=O)[nH]2)cn1 [Compound 4] to Cc1ncccc1-c1nc2c(-c3nccs3)cc(-c3cccc4[nH]ncc34)c(N)c2c(=O)[nH]1 [Compound 113], the IC50 rises from 5 nM to 94 nM (19-fold). The first is the more potent here.

Going from Cc1ccc(O)cc1-c1cc(C2=CCOCC2)c2c(c1N)C(=O)NC2 [Compound 105] to Cc1ccc(O)cc1-c1cc(-c2ncc(C#N)s2)c2c(c1N)C(=O)NC2 [Compound 155], the IC50 falls from 641 nM to 179 nM (3.6-fold).

Compared with Cc1ccc2[nH]ncc2c1-c1cc(-c2cccc(OCc3nccn3C)n2)c2nc[nH]c(=O)c2c1N [Compound 90], Cc1ccc2[nH]ncc2c1-c1cc(-c2cccc(OCc3ncco3)n2)c2nc[nH]c(=O)c2c1N [Compound 91] is 2.2-fold lower in IC50: 11 nM for the first, 5 nM for the second. The second is the more potent here.

Going from Nc1c(-c2cccc3[nH]ncc23)cc(-c2nccs2)c2nc(-c3cccnn3)[nH]c(=O)c12 [Compound 41] to CC(=O)Nc1ccc(-c2nc3c(-c4nccs4)cc(-c4cccc5[nH]ncc45)c(N)c3c(=O)[nH]2)cc1 [Compound 17], the IC50 rises from 10 nM to 78 nM (7.8-fold). The first is the more potent here.

Going from Cc1ccc2[nH]ncc2c1-c1cc(-c2cccc(F)n2)c2nc[nH]c(=O)c2c1N [Compound 99] to Cc1ccc2[nH]ncc2c1-c1cc(-c2nccs2)c2nc[nH]c(=O)c2c1N [Compound 98], the IC50 falls from 17 nM to 5 nM (3.4-fold). The second is the more potent here.

First: COCCOc1ccc(-c2nc3c(Br)cc(-c4cccc5[nH]ncc45)c(N)c3c(=O)[nH]2)cn1 [Compound 103]
Second: Cn1ccc(-c2cc(-c3cccc4[nH]ncc34)c(N)c3c(=O)[nH]c(-c4ccncc4)nc23)n1 [Compound 61]
The IC50 of the first is 4-fold higher: 8 nM for the first, 2 nM for the second.

Going from Nc1c(-c2cccc3[nH]ncc23)cc(-c2cnn(C3CCOCC3)c2)c2nc(-c3cccnc3)[nH]c(=O)c12 [Compound 81] to Nc1c(-c2cccc3[nH]ncc23)cc(-c2cnn(CC3CC3)c2)c2nc(-c3ccncc3)[nH]c(=O)c12 [Compound 68], the IC50 rises from 4 nM to 6 nM (1.5-fold). The first is the more potent here.

First: Cc1ccc(O)c(C)c1-c1cc(C2CC2)c2nc(-c3ccncc3)[nH]c(=O)c2c1N [Compound 134, 5-amino-8-cyclopropyl-6-(3-hydroxy-2,6-dimethyl-phenyl)-2-(4-pyridyl)-3H-quinazolin-4-one]
Second: Nc1c(-c2cccc3[nH]ncc23)ccc2nc(-c3ccncc3)[nH]c(=O)c12 [Compound 96]
The IC50 of the first is 13-fold lower: 5 nM for the first, 67 nM for the second. The first is the more potent here.

Molecule Cc1ccc2[nH]ncc2c1-c1cc(-c2ccnnc2)c2c(c1N)C(=O)NC2 [Compound 51] has an IC50 of 1230 nM.
